The IC50 is the concentration needed to halve the response being measured.

SMILES strings stand for the structures. Some results are limits rather than exact numbers.

The text below walks through data of patent publication US10023592B2, “Bromodomain inhibitors” (Celgene Quanticel Research, Inc., priority 2013, dated 2018).

Assay [1] has as its system Raji, human Burkitts lymphoma cells. As to the kind of experiment: Cell-MTS proliferation assay, Raji. The assay is classed as cell-based. To be noted: Homo sapiens, 168 hr. In a few lines: (§1)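 Cells were seeded per 96-well at densities giving ~90% confluence by day 7 (Raji 15,000, HL-60 5,000, NCI-H460 3,000) and dosed 24 hr later with an 11-point dilution, 100 μM to 2.0 nM final. Seven-day MTS colorimetric read at OD490; IC50 from background-subtracted, DMSO-normalised values.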
(Tetrazolium assays rely on reduction of a dye to a coloured formazan, in cell work by metabolically active cells.)

For assay [2], the system named is NCI-H460, human non-small cell lung cancer cells. As to the kind of experiment: Cell-MTS proliferation assay, NCI-H460. Type of assay: cell-based. The conditions noted are these: Homo sapiens, 168 hr. In a few lines:
as §1

In another assay the target is BRD4(BD1) (Homo sapiens (Human), UniProt O60885). As to the kind of experiment: In vitro enzyme inhibition assay (BRD4 AlphaScreen). The assay is classed as binding. In a few lines:
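AlphaScreen proximity readout, using streptavidin donor and Ni-chelate acceptor beads at 5 μg/mL final, monitors biotin-H4 tetraacetylated peptide interaction with purified His-tagged BRD4.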
(Alpha assays give light when donor and acceptor beads are brought close together.)

The test system of assay [3] is HL-60, human proleukemia cells. Kind of assay: Cell-MTS proliferation assay, HL-60. Type of assay: cell-based. To be noted: Homo sapiens, 168 hr. In a few lines:
as §1

Where [4] appears, read: NCI-H460, Cell-MTS proliferation.
Where [5] appears, read: in vitro enzyme inhibition assay.
Where [6] appears, read: Cell-MTS proliferation, Raji cells.
[7] abbreviates: Cell-MTS proliferation, NCI-H460 cells.
The mark [8] stands for this setting: Cell-MTS proliferation, HL-60 cells.
Setting [9] is: Raji, Cell-MTS, class symbols A/B/C.
[10] abbreviates: NCI-H460, Cell-MTS, class symbols A/B/C.
The mark [11] stands for this setting: HL-60, Cell-MTS, class symbols A/B/C.

As to `CCS(=O)(=O)Nc1ncc(Oc2ccc(F)cc2F)c(-c2cc(C)c(=O)n(CC3CC3)c2)n1` [Example 249, N-[4-[1-(cyclopropylmethyl)-5-methyl-6-oxopyridin-3-yl]-5-(2,4-difluorophenoxy)pyrimidin-2-yl]ethanesulfonamide], the concentration for half-maximal inhibition (IC50) in assay [1] (Raji, Cell-MTS proliferation) was below 500 nM; in assay [2] (setting [4]) it was above 5000 nM; against BRD4(BD1) (setting [5]), below 500 nM; in assay [3] (HL-60, Cell-MTS proliferation), below 500 nM.

Regarding `CCCOc1ccc(S(C)(=O)=O)cc1-c1cn(C)c(=O)c2ccccc12` [Example 178, 2-methyl-4-(5-methylsulfonyl-2-propoxyphenyl)isoquinolin-1-one], the IC50 in assay [1] (Raji, Cell-MTS proliferation) is below 500 nM; in assay [2] (setting [4]) it was above 5000 nM; against BRD4(BD1) (setting [5]), below 500 nM; in assay [3] (HL-60, Cell-MTS proliferation), below 500 nM.

In the case of `CCOc1ccc(S(=O)(=O)CC)cc1-c1cc(N(C)C)c(=O)n(C)c1` [Example 469, 3-(dimethylamino)-5-(2-ethoxy-5-ethylsulfonylphenyl)-1-methylpyridin-2-one], the IC50 in assay [1] (setting [6]) is below 500 nM; in assay [2] (setting [7]), above 5000 nM; at BRD4(BD1) (setting [5]), below 500 nM; in assay [3] (setting [8]), below 500 nM.

Consider `CCS(=O)(=O)Cc1ccc(Oc2ccc(F)cc2F)c(-c2cc(OCC(F)(F)F)c(=O)n(C)c2)c1` [Example 292, 5-[2-(2,4-difluorophenoxy)-5-(ethylsulfonylmethyl)phenyl]-1-methyl-3-(2,2,2-trifluoroethoxy)pyridin-2-one], for which the concentration for half-maximal inhibition (IC50) was 500 to 5000 nM in assay [1] (Raji, Cell-MTS proliferation); above 5000 nM in assay [2] (setting [4]); below 500 nM against BRD4(BD1) (setting [5]); below 500 nM in assay [3] (HL-60, Cell-MTS proliferation).

Consider `Cc1cc(-c2cc(OCCc3ccccc3)cc(S(C)(=O)=O)c2)cn(C)c1=O` [Example 326, 1,3-dimethyl-5-[3-methylsulfonyl-5-(2-phenylethoxy)phenyl]pyridin-2-one], for which the IC50 in assay [1] (Raji, Cell-MTS proliferation) was 500 to 5000 nM; in assay [2] (setting [4]), above 5000 nM; against BRD4(BD1) (setting [5]), below 500 nM; in assay [3] (HL-60, Cell-MTS proliferation), 500 to 5000 nM.

Take `Cn1cc(-c2cc(CS(C)(=O)=O)ccc2OCC(F)(F)F)n2cncc2c1=O` [Example 370, 7-methyl-5-[5-(methylsulfonylmethyl)-2-(2,2,2-trifluoroethoxy)phenyl] imidazo[1,5-a]pyrazin-8-one]: the IC50 in assay [1] (Raji, Cell-MTS proliferation) was 500 to 5000 nM; in assay [2] (setting [4]), above 5000 nM; against BRD4(BD1) (setting [5]), below 500 nM; in assay [3] (HL-60, Cell-MTS proliferation), 500 to 5000 nM.

`CCS(=O)(=O)Nc1ccc(O[C@H]2CC[C@@H](O)CC2)c(-c2cc(C)c(=O)n(C)c2)c1` [Example 431, N-[3-(1,5-dimethyl-6-oxopyridin-3-yl)-4-(cis-4-hydroxycyclohexyl)oxyphenyl]ethanesulfonamide]: the IC50 in assay [1] (setting [6]) is 500 to 5000 nM; in assay [2] (setting [7]) it was above 5000 nM; against BRD4(BD1) (setting [5]), below 500 nM; in assay [3] (setting [8]), below 500 nM.

On to `CCS(=O)(=O)Nc1ccc(Oc2ccc(F)cc2F)c(-c2ccc(=O)n(C)c2)c1` [Example 99, N-[4-(2,4-difluorophenoxy)-3-(1-methyl-6-oxopyridin-3-yl)phenyl]ethanesulfonamide], for which the IC50 in assay [1] (setting [9]) is below 500 nM; in assay [2] (setting [10]), above 5000 nM; against BRD4(BD1) (class symbols A/B/C) it was below 500 nM; in assay [3] (setting [11]), below 500 nM.

For the molecule `Cn1cc(-c2cc(S(C)(=O)=O)ccc2Oc2ccc(F)cc2F)c2ccccc2c1=O` [Example 92, 4-[2-(2,4-difluorophenoxy)-5-methylsulfonylphenyl]-2-methylisoquinolin-1-one], the IC50 in assay [1] (setting [9]) is below 500 nM; in assay [2] (setting [10]) it was above 5000 nM; against BRD4(BD1) (class symbols A/B/C) it was below 500 nM; in assay [3] (setting [11]) it was below 500 nM.

`Cc1cc(-c2cn(CS(C)(=O)=O)c(=O)cc2Oc2ccc(F)cc2F)cn(C)c1=O` [Example 385, 5-[4-(2,4-difluorophenoxy)-1-(methylsulfonylmethyl)-6-oxopyridin-3-yl]-1,3-dimethylpyridin-2-one]: the half-inhibitory concentration (IC50) in assay [1] (setting [6]) was below 500 nM; in assay [2] (setting [7]) it was above 5000 nM; against BRD4(BD1) (setting [5]), below 500 nM; in assay [3] (setting [8]), below 500 nM.

Regarding `Cc1cc(-c2cc(NS(C)(=O)=O)ccc2Oc2ccc(F)cc2F)cn(C)c1=O` [Example 102, N-[4-(2,4-difluorophenoxy)-3-(1,5-dimethyl-6-oxopyridin-3-yl)phenyl]methanesulfonamide], the 50% inhibitory concentration (IC50) was below 500 nM in assay [1] (setting [9]), above 5000 nM in assay [2] (setting [10]), below 500 nM against BRD4(BD1) (class symbols A/B/C) and below 500 nM in assay [3] (setting [11]).

As to `Cn1cc(-c2cc(S(C)(=O)=O)ccc2NCC2CC2)c2c(c1=O)CCCC2` [Example 223, 4-[2-(cyclopropylmethylamino)-5-methylsulfonylphenyl]-2-methyl-5,6,7,8-tetrahydroisoquinolin-1-one], the concentration for half-maximal inhibition (IC50) in assay [1] (Raji, Cell-MTS proliferation) is 500 to 5000 nM; in assay [2] (setting [4]) it was above 5000 nM; at BRD4(BD1) (setting [5]), below 500 nM; in assay [3] (HL-60, Cell-MTS proliferation), below 500 nM.

Turning to `Cc1cc(-c2cc(OCc3ccccc3C#N)cc(S(C)(=O)=O)c2)cn(C)c1=O` [Example 334, 2-[[3-(1,5-dimethyl-6-oxopyridin-3-yl)-5-methylsulfonylphenoxy]methyl]benzonitrile], the IC50 in assay [1] (Raji, Cell-MTS proliferation) was 500 to 5000 nM; in assay [2] (setting [4]) it was above 5000 nM; against BRD4(BD1) (setting [5]) it was below 500 nM; in assay [3] (HL-60, Cell-MTS proliferation), below 500 nM.

For `CCc1cnc(NS(=O)(=O)CC)nc1-c1cc(C)c(=O)n(C)c1` [Example 307, N-[4-(1,5-dimethyl-6-oxopyridin-3-yl)-5-ethylpyrimidin-2-yl] ethanesulfonamide], the IC50 was below 500 nM in assay [1] (Raji, Cell-MTS proliferation); above 5000 nM in assay [2] (setting [4]); below 500 nM against BRD4(BD1) (setting [5]); below 500 nM in assay [3] (HL-60, Cell-MTS proliferation).

Turning to `Cc1cc(-c2cc(S(C)(=O)=O)ccc2OCC2CC2)cn(C)c1=O` [Example 476, 5-[2-(cyclopropylmethoxy)-5-methylsulfonylphenyl]-1,3-dimethylpyridin-2-one], the IC50 in assay [1] (setting [6]) is 500 to 5000 nM; in assay [2] (setting [7]), above 5000 nM; against BRD4(BD1) (setting [5]) it was below 500 nM; in assay [3] (setting [8]), below 500 nM.

Regarding `CCS(=O)(=O)Nc1cccc(-c2cn(C)c(=O)c3ccc(-c4ccccn4)cc23)c1` [Example 87, N-[3-(2-methyl-1-oxo-6-pyridin-2-ylisoquinolin-4-yl)phenyl]ethanesulfonamide], the IC50 in assay [1] (setting [9]) is 500 to 5000 nM; in assay [2] (setting [10]), above 5000 nM; against BRD4(BD1) (class symbols A/B/C), 500 to 5000 nM; in assay [3] (setting [11]), below 500 nM.

As to `CCS(=O)(=O)Nc1ncc(Oc2ccc(F)cc2F)c(-c2cn(C)c(=O)c3occc23)n1` [Example 263, N-[5-(2,4-difluorophenoxy)-4-(6-methyl-7-oxofuro[2,3-c]pyridin-4-yl)pyrimidin-2-yl]ethanesulfonamide], the concentration for half-maximal inhibition (IC50) in assay [1] (Raji, Cell-MTS proliferation) is below 500 nM; in assay [2] (setting [4]), above 5000 nM; on BRD4(BD1) (setting [5]), below 500 nM; in assay [3] (HL-60, Cell-MTS proliferation), below 500 nM.

On to `Cn1cc(-c2cc(S(C)(=O)=O)ccc2OCC2CC2)c2c(c1=O)CCCC2` [Example 217, 4-[2-(cyclopropylmethoxy)-5-methylsulfonylphenyl]-2-methyl-5,6,7,8-tetrahydroisoquinolin-1-one], for which the half-maximal inhibitory concentration (IC50) in assay [1] (Raji, Cell-MTS proliferation) is below 500 nM; in assay [2] (setting [4]), above 5000 nM; against BRD4(BD1) (setting [5]) it was below 500 nM; in assay [3] (HL-60, Cell-MTS proliferation) it was below 500 nM.

For the molecule `CCCc1cnc(NS(=O)(=O)CC)nc1-c1cc(C)c(=O)n(C)c1` [Example 308, N-[4-(1,5-dimethyl-6-oxopyridin-3-yl)-5-propylpyrimidin-2-yl] ethanesulfonamide], the 50% inhibitory concentration (IC50) was below 500 nM in assay [1] (Raji, Cell-MTS proliferation); above 5000 nM in assay [2] (setting [4]); below 500 nM on BRD4(BD1) (setting [5]); below 500 nM in assay [3] (HL-60, Cell-MTS proliferation).

For the molecule `Cn1cc(-c2cc(NS(C)(=O)=O)ccc2Oc2ccc(F)cc2F)n2cncc2c1=O` [Example 367, N-[4-(2,4-difluorophenoxy)-3-(7-methyl-8-oxoimidazo[1,5-a]pyrazin-5-yl)phenyl]methanesulfonamide], the IC50 is below 500 nM in assay [1] (Raji, Cell-MTS proliferation); above 5000 nM in assay [2] (setting [4]); below 500 nM at BRD4(BD1) (setting [5]); below 500 nM in assay [3] (HL-60, Cell-MTS proliferation).

As to `Cn1cc(Oc2cc(-c3cc(S(C)(=O)=O)ccc3OCC3CC3)cn(C)c2=O)cn1` [Example 293, 5-[2-(cyclopropylmethoxy)-5-methylsulfonylphenyl]-1-methyl-3-(1-methylpyrazol-4-yl)oxypyridin-2-one], the IC50 in assay [1] (Raji, Cell-MTS proliferation) was 500 to 5000 nM; in assay [2] (setting [4]) it was above 5000 nM; at BRD4(BD1) (setting [5]), below 500 nM; in assay [3] (HL-60, Cell-MTS proliferation) it was 500 to 5000 nM.

As to `CCS(=O)(=O)c1cc(-c2cn(C)c(=O)c3ccccc23)c(OCC2CC2)cn1` [Example 207, 4-[5-(cyclopropylmethoxy)-2-ethylsulfonylpyridin-4-yl]-2-methylisoquinolin-1-one], the IC50 in assay [1] (Raji, Cell-MTS proliferation) is below 500 nM; in assay [2] (setting [4]), above 5000 nM; against BRD4(BD1) (setting [5]), below 500 nM; in assay [3] (HL-60, Cell-MTS proliferation), below 500 nM.

`CCS(=O)(=O)Nc1ccc(Oc2ccc(F)cc2F)c(-c2cn(C)c(=O)c3cnccc23)c1` [Example 57, N-[4-(2,4-difluorophenoxy)-3-(2-methyl-1-oxo-2,7-naphthyridin-4-yl)phenyl]ethanesulfonamide]: the IC50 in assay [1] (setting [9]) was below 500 nM; in assay [2] (setting [10]), above 5000 nM; against BRD4(BD1) (class symbols A/B/C), below 500 nM; in assay [3] (setting [11]) it was below 500 nM.

With `Cn1cc(-c2cn(CS(C)(=O)=O)c(=O)cc2OCC2CC2)c2ccc(F)cc2c1=O` [Example 383, 4-[4-(cyclopropylmethoxy)-1-(methylsulfonylmethyl)-6-oxopyridin-3-yl]-7-fluoro-2-methylisoquinolin-1-one], the IC50 was 500 to 5000 nM in assay [1] (setting [6]), above 5000 nM in assay [2] (setting [7]), below 500 nM against BRD4(BD1) (setting [5]) and below 500 nM in assay [3] (setting [8]).
